# Test results taken from patent US12697343B2, “Intravenous istaroxime for the treatment of acute heart failure” (Seismic Pharmaceuticals Operations LLC, priority 2021, dated 2026).
# Where a name gives a salt, the structure may show the parent alone.
# Experiments:
# [1] = tested on: patients hospitalized for acute heart failure (AHF); settings: 1.0 μg/kg/min group; Carubelli et al.; cited from earlier work
# [2] = tested on: AHF patients with systolic blood pressure (SBP) of 90-150 mmHg; settings: 0.5, 1.0, and 1.5 μg/kg/min for 6 h; cited from earlier work
# [3] = tested on: patients hospitalized for acute heart failure (AHF); assay: Vital signs (systolic blood pressure, heart rate) during and after 24 h infusion; type: in vivo, human
# Source text: (§1) This study was a phase II, multicenter, randomized, double-blind, placebo-controlled, parallel group investigation, conducted at two sites in Italy and eight sites in China. All patients provided written informed consent. The study was approved by country regulatory authorities and by local institutional review boards. The trial is registered in the European Clinical Trials Database (EudraCT 2013-000540-26) and ClinicalTrials.gov (NCT02617446).
# (§2) Patients were randomized 2:1 to istaroxime or placebo 24 h infusion and were enrolled in two sequential cohorts, the first with an istaroxime dose of 0.5 μg/kg/min and the second with an istaroxime dose of 1.0 μg/kg/min. At the end of cohort 1 enrollment, an independent Data Safety and Monitoring Board conducted an interim safety analysis of unblinded data before proceeding to cohort 2 enrollment. Inclusion criteria were: age ≥18 years, an ongoing hospitalization for AHF with dyspnoea at rest or minimal exertion and need for intravenous diuretic therapy (40 mg intravenous furosemide), SBP between 90 and 125 mmHg without signs or symptoms of peripheral hypoperfusion: LVEF ≤40%: intermediate to high E/e′ ratio by tissue Doppler echocardiography (10); brain natriuretic peptide (BNP) or N-terminal pro BNP (NT-proBNP) plasma levels ≥350 pg/mL or ≥1400 pg/mL, respectively, and presence of adequate echocardiographic windows. The main exclusion criteria were: concomitant or planned treatment with intravenous vasodilators, inotropes or vasopressors: treatment with oral digoxin (patients treated with digoxin within the last week could be randomized if the plasma concentration at screening was 0.5 ng/mL); acute coronary syndrome or stroke within the past 3 months: coronary artery bypass graft or percutaneous coronary intervention within the past month or planned in the next month: resting HR >120 bpm or <50 bpm: life-threatening ventricular arrhythmia or implantable cardioverter-defibrillator shock within the past month: fever 38° C.; serum creatinine 3.0 mg/dL or estimated glomerular filtration rate (eGFR) 30 mL/min/m2; serum potassium 5.3 mmol/L or 3.8 mmol/L; severe hepatic dysfunction.
# The primary efficacy endpoint was the change from baseline to 24 h after the start of the infusion in the E/e ratio assessed by tissue Doppler echocardiography. Secondary endpoints included the change from baseline to 24 h of other echocardiography parameters: LVEF, left ventricular end-systolic and end-diastolic volumes, stroke volume index, E, A, E/A ratio, and S′: changes in dyspnoea by visual analogue scale (VAS) and in NT-proBNP from baseline to 24 h: proportion of patients with hospital readmissions or emergency visits for cardiovascular reasons by day 30; proportion of patients with episodes of in-hospital worsening heart failure to day 4, and length of stay. In-hospital worsening heart failure was defined by the need to increase the dose or reinitiate intravenous therapy with diuretics and/or other inotropic agents to day 4. Safety endpoints were assessed throughout the study and included: incidence of adverse events (AEs): change in vital signs and in 12-lead electrocardiographic (ECG) parameters: incidence of clinically or haemodynamically significant episodes of supraventricular or ventricular arrhythmias detected by continuous ECG monitoring: standard laboratory parameters: renal function: cardiac troponin T (cTnT): incidence of cTnT elevations, and mortality at day 30. Elevations in cTnT were considered significant if they were >50% or >20% from baseline values, for patients with cTnT below or above the 99% upper reference limit at baseline, respectively.
# The study design included a 24 h screening period, a 24 h study drug infusion phase (day 1), a post-treatment phase (days 2-4), and a follow-up visit at day 30 (FIG. 5). Patients could be enrolled at any time after admission. The use of oral medications was permitted during the study with the exception of digoxin. […]
# [4] = tested on: patients hospitalized for acute heart failure (AHF); assay: Diuresis over 24 h during and after study drug infusion; type: in vivo, human
# Source text: as §1, §2
# The study design included a 24 h screening period, a 24 h study drug infusion phase (day 1), a post-treatment phase (days 2-4), and a follow-up visit at day 30 (FIG. 5). Patients could be enrolled at any time after admission. The use of oral medications was permitted during the study with the exception of digoxin. Intravenous diuretics were permitted during the treatment period at stable doses, unless changes were required due to clinically relevant variations of the patient's condition. If treatment with an inotrope was clinically necessary during the infusion period, the investigational product was discontinued. Echocardiography was performed according to international standards at screening, baseline (just before starting study drug infusion), 6, 24 h (just before infusion end), and 48 h after infusion start. Echocardiographic measurements at baseline, 6, 24, and 48 h were evaluated in a blinded fashion by a CoreLab located at the University and Civil Hospital of Brescia, Italy. E/e′ ratio was calculated as the ratio between the peak early diastolic mitral flow velocity (E wave) and the mean of the annular lateral (e′ lateral) and septal (e′ septal) velocities, according to standard guidelines.^20 Intraobserver and interobserver variability in E/e′ measurement was tested on the 15% of the recordings and is shown in FIG. 6. Self-reported dyspnoea was assessed using a 100 mm VAS, with zero representing the worst level of dyspnoea and 10 the best breathing condition. Twenty-four hour ECG monitoring was performed using a three-lead device (Mortara industries, Milwaukee, WI, USA) during the day of screening, the infusion period, and the day after (the latter was optional). Analysis was conducted by a blinded CoreLab (ICS Maugeri, Italy). […]
smiles,measurement,setting,value
"C[C@]12CCC(=NOCCN)C[C@@H]1C(=O)C[C@@H]1[C@@H]2CC[C@]2(C)C(=O)CC[C@@H]12 [Istaroxime, (E,Z)-3-((2-aminoethoxy)imino)androstane-6,17-dione hydrochloride]","Serious adverse events, percent",[1],15%
same,cardiac index,[2],increased only at the highest dose
same,lusitropic effect assessed by increased mitral deceleration time,[2],occurred only at the highest dose
same,HR mean change from baseline,"[3]; 0.5 μg/Kg/min, 3 hours",−4.21 bpm
same,SBP mean change from baseline,"[3]; 0.5 μg/Kg/min, 3 hours",1.49 mmHg
same,HR mean change from baseline,"[3]; 0.5 μg/Kg/min, 6 hours",−3.51 bpm
same,SBP mean change from baseline,"[3]; 0.5 μg/Kg/min, 6 hours",2.92 mmHg
same,HR mean change from baseline,"[3]; 0.5 μg/Kg/min, 12 hours",−4.59 bpm
same,SBP mean change from baseline,"[3]; 0.5 μg/Kg/min, 12 hours",3.13 mmHg
same,HR mean change from baseline,"[3]; 0.5 μg/Kg/min, 24 hours",−3.26 bpm
same,SBP mean change from baseline,"[3]; 0.5 μg/Kg/min, 24 hours",2.82 mmHg
same,HR mean change from baseline,"[3]; 0.5 μg/Kg/min, 48 hours",−0.37 bpm
same,SBP mean change from baseline,"[3]; 0.5 μg/Kg/min, 48 hours",−3.10 mmHg
same,HR decreased from baseline by,[3]; 0.5 μg/kg/min,about 3 bpm
same,SBP increased from baseline by,[3]; 0.5 μg/kg/min,about 3 mmHg
same,HR mean change from baseline,"[3]; 1.0 μg/Kg/min, 3 hours",−10.61 bpm
same,SBP mean change from baseline,"[3]; 1.0 μg/Kg/min, 3 hours",7.63 mmHg
same,HR mean change from baseline,"[3]; 1.0 μg/Kg/min, 6 hours",−8.89 bpm
same,SBP mean change from baseline,"[3]; 1.0 μg/Kg/min, 6 hours",8.08 mmHg
same,HR mean change from baseline,"[3]; 1.0 μg/Kg/min, 12 hours",−9.49 bpm
same,SBP mean change from baseline,"[3]; 1.0 μg/Kg/min, 12 hours",9.00 mmHg
same,HR mean change from baseline,"[3]; 1.0 μg/Kg/min, 24 hours",−9.61 bpm
same,SBP mean change from baseline,"[3]; 1.0 μg/Kg/min, 24 hours",6.11 mmHg
same,HR mean change from baseline,"[3]; 1.0 μg/Kg/min, 48 hours",3.86 bpm
same,SBP mean change from baseline,"[3]; 1.0 μg/Kg/min, 48 hours",−1.73 mmHg
same,SBP increased from baseline by,"[3]; 1.0 μg/kg/min, significant vs. placebo at 3 to 12 h",6-8 mmHg
same,HR decreased from baseline by,"[3]; 1.0 μg/kg/min, significant vs. placebo at 3 to 24 h",8-9 bpm
same,"Diuresis, median","[4]; 0.5 μg/kg/min, 0-24 h",2700 mL
same,"Diuresis, median","[4]; 0.5 μg/kg/min, 24-48 h",1800 mL
same,"Diuresis, median","[4]; 0.5 μg/kg/min, 48-72 h",1650 mL
same,"Diuresis, median","[4]; 1.0 μg/kg/min, 0-24 h",1975 mL
same,"Diuresis, median","[4]; 1.0 μg/kg/min, 24-48 h",1260 mL
same,"Diuresis, median","[4]; 1.0 μg/kg/min, 48-72 h",1350 mL
same,Overall diuresis during the 24 h infusion,[4]; compared to placebo,numerically higher
